This note sets out measurements from ChEMBL document CHEMBL1201862, “PubChem BioAssay data set” (2004).

Experiment [1] can be described thus: NIH-3T3 fibroblast cytotoxicity, dose response, cytotoxicity control, cell-based, fluorescence, Alamar Blue, secondary assay (AID 2327).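 Also: NIH-3T3 mouse fibroblasts cultured with fluconazole at 8 µg/mL.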 It is filed as functional. A general note: Alamar Blue is a resazurin reagent that responds to reducing activity.
The nature of experiment [2]: C. albicans growth with fluconazole, confirmation, fluorescence, retest (AID 2467). Type of experiment: functional, cell-based.
Experiment [3] addresses Multidrug resistance protein CDR2 (Candida albicans (strain SC5314 / ATCC MYA-2876) (Yeast), UniProt P78595). Nature of the experiment: CaCDR2 efflux pump inhibitors in yeast, dose response, S. cerevisiae AD1-8u, singleplex, Cherry Pick2 set (AID 623994). It is filed as functional. The conditions noted are these: read-out: EC50_MICROM.
The target of experiment [4] is T1, Mitochondrial peptide methionine sulfoxide reductase (Bos taurus, UniProt P54149).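 Also: absorbance read-out, biochemical high-throughput dose-response screen for MsrA inhibitors, confirmatory; recombinant bovine MsrA coupled to E. coli TrxB with NADPH and selenocystamine; potency is for inhibitors of MsrA activity on DMSO substrate.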
T1 sequence (P54149 whole entry): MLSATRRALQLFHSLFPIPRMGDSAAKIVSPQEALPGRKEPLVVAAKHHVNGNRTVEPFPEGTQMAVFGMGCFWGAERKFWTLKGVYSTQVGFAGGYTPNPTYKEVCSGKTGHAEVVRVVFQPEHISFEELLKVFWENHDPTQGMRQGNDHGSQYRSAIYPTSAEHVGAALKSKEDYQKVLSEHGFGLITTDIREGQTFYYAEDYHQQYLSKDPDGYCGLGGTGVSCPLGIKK
It is filed as functional.

The target in experiment [5] is Protein Wnt-3a (Mus musculus, UniProt P27467). The experiment is described as follows: Wnt3a-driven reporter signaling inhibition, dose response, selectivity assay for Gli-SUFU antagonist project, Wnt-LIGHT cells, luminescence (AID 651570).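 Also: Wnt-LIGHT reporter cells stimulated with conditioned medium from Wnt3a-producing cells.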 Type of experiment: functional. The conditions noted are these: read-out: IC50_Mean.
Sequence of Protein Wnt-3a (P27467 whole entry): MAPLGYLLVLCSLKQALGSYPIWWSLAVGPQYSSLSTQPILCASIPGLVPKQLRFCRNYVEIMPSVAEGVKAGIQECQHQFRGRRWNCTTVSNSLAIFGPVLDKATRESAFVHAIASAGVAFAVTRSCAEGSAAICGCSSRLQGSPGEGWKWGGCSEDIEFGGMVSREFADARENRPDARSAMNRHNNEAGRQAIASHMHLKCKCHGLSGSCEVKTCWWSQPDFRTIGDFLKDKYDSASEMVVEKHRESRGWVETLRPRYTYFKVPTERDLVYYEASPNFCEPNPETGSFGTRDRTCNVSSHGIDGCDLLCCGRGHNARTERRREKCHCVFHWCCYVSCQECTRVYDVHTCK
In experiment [6] the target is 26S proteasome non-ATPase regulatory subunit 14 (Homo sapiens, UniProt O00487). The experiment is described as follows: inhibition of proteasome subunit RPN11 – biochemical, fluorescence polarization, uHTS hits, confirmation (AID 602368). It is filed as functional. In general terms: Polarisation of emitted light reports the rotation of a fluorescent probe.
Sequence of 26S proteasome non-ATPase regulatory subunit 14 (O00487 whole entry): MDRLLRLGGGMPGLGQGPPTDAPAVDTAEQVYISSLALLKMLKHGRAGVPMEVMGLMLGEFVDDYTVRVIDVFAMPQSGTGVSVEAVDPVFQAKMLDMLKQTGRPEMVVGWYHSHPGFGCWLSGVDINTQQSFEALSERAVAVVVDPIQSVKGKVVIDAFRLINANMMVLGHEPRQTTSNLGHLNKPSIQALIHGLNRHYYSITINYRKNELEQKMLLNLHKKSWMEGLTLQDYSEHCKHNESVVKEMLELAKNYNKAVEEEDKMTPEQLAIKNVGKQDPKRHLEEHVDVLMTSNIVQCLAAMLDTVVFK
For experiment [7], the target named is 72 kDa type IV collagenase (Homo sapiens, UniProt P08253). Nature of the experiment: Dose Response validation of uHTS RPN11 inhibitor hits using a MMP-2 Fluorescence assay. It is filed as functional.
Sequence of 72 kDa type IV collagenase (P08253 whole entry): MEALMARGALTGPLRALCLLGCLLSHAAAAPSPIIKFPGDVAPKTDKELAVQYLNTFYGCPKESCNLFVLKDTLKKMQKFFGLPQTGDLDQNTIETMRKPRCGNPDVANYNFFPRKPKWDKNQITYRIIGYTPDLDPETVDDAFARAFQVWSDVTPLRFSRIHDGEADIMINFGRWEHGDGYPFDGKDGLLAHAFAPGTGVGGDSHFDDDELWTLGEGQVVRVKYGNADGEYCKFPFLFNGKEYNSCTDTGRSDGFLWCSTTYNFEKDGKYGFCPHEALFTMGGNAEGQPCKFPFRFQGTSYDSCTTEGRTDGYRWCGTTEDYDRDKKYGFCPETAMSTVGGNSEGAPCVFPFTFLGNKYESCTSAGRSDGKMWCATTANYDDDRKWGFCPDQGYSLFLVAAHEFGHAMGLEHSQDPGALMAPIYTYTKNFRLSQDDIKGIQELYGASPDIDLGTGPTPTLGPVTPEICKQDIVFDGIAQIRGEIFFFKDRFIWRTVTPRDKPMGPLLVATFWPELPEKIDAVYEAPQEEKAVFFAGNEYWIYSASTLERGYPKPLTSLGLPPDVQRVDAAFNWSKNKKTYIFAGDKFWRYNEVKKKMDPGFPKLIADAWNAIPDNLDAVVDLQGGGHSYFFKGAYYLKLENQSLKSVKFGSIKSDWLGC
The target in experiment [8] is Prothrombin (Bos taurus, UniProt P00735). Nature of the experiment: thrombin inhibition, dose response, biochemical, fluorescence polarization, uHTS hits (AID 602369). It is filed as functional.
For experiment [9], the target named is T2, High affinity choline transporter 1 (Homo sapiens, UniProt Q9GZV3).
T2 sequence (Q9GZV3 whole entry): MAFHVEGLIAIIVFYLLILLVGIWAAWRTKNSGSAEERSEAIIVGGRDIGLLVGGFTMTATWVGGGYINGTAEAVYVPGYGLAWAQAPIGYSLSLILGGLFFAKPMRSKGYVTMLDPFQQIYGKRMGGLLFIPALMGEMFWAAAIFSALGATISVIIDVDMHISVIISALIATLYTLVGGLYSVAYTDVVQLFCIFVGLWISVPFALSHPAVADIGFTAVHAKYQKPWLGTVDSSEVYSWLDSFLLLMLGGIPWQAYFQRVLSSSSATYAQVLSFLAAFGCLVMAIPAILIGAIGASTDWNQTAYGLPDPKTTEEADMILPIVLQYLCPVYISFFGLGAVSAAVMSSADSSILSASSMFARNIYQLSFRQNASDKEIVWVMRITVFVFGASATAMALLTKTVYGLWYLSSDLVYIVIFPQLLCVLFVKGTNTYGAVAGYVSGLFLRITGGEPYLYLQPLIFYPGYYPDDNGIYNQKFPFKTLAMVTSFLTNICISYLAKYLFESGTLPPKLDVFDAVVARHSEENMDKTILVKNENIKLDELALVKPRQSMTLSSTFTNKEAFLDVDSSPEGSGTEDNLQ
The experiment is described as follows: CHT inhibitors, dose response, cell-based, 5-point CRC, membrane potential dye (AID 504840). Type of experiment: functional.

The target of experiment [10] is T2, High affinity choline transporter 1. The experiment is described as follows: CHT inhibitors, dose response, cell-based, 10-point CRC, membrane potential dye (AID 588401).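 Also: membrane potential dye fluorescence of choline-evoked depolarization via CHT.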 It is filed as functional.
Experiment [11] in a line: Fluorescence-based cell-based high throughput dose response assay for inhibitors of the interaction of nucleotide-binding oligomerization domain containing 2 (NOD2) and the receptor-interacting serine-threonine kinase 2 (RIPK2). Type of experiment: functional. The conditions noted are these: Homo sapiens.
Experiment [12] deals with Beta-lactamase (Pseudomonas aeruginosa, UniProt Q79MP6).
Sequence of Beta-lactamase (Pseudomonas aeruginosa, UniProt Q79MP6) (Q79MP6 whole entry): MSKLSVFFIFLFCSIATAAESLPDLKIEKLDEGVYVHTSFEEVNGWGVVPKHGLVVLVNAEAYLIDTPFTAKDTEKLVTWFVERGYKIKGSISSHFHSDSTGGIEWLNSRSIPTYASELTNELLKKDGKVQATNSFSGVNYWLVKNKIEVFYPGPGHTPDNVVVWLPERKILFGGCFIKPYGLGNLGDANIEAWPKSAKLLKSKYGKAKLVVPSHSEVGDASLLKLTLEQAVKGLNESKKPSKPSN
Experiment [13] addresses Beta-lactamase (Salmonella choleraesuis (strain SC-B67), UniProt Q5J463).
Experiment [14] deals with CHO. Nature of the experiment: cytotoxicity in TLR9-MyD88 CHO cells, dose response, cytotoxicity control for TLR9-MyD88 binding inhibitor project, cell-based, luminescence (AID 588339).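 Also: CHO cells stably coexpressing TLR9 and MyD88 fusions from primary screen; compound exposure lasted 48 hours before viability readout.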 Type of experiment: functional, hamster. As to conditions: Cricetulus griseus.
The target of experiment [15] is T3, Insulin-degrading enzyme (Homo sapiens, UniProt P14735).
T3 sequence (P14735 whole entry): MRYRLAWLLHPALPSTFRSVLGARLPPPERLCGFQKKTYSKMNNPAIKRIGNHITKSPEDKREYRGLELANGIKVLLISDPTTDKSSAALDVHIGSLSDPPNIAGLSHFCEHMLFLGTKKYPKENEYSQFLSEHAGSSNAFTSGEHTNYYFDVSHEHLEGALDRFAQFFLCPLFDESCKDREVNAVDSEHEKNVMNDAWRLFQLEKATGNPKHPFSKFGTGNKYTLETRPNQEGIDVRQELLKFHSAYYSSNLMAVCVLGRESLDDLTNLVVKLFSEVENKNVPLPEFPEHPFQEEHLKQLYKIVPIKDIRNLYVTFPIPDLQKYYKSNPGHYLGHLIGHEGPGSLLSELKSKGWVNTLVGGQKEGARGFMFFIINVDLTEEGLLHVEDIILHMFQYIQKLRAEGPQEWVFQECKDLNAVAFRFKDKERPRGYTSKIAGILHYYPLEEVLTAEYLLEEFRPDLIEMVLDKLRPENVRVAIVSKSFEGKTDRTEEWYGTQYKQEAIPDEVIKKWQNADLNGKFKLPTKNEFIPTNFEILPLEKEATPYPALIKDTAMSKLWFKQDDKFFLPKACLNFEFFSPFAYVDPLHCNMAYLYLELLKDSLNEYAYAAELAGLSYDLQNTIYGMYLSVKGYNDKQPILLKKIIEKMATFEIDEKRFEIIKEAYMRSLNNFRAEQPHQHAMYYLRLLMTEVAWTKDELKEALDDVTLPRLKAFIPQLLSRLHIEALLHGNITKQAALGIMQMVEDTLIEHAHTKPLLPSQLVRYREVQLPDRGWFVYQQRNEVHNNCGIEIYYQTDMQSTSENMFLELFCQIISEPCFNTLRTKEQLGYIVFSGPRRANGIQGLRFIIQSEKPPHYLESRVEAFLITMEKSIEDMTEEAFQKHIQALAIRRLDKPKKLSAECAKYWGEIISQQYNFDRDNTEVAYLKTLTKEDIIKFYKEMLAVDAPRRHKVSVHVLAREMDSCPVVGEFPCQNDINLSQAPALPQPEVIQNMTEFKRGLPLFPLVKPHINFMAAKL
Nature of the experiment: activators of recombinant IDE enzyme, dose response, counter-screen for IDE activator project, biochemical, fluorescence polarization (AID 588681). In general terms: The purpose of a counterscreen is to sort out artefacts and off-target activity.

In experiment [16] the target is T3, Insulin-degrading enzyme. Nature of the experiment: activators of endogenous IDE in HEK cells, dose response, cell-based, fluorescence polarization (AID 588439). Type of experiment: functional.
Experiment [17] relates to HEK293. Nature of the experiment: HEK cell cytotoxicity by LDH release, dose response, cytotoxicity control for IDE activator project, fluorescence, HEK cells (AID 588440).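 Also: cytotoxicity by LDH release measuring loss of membrane integrity.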 Type of experiment: functional, cell-based. The conditions noted are these: Homo sapiens.
For experiment [18], the system named is HEK293. The experiment is described as follows: optical interference in Abeta FP readout, dose response, artefact control for IDE activator project, biochemical, fluorescence polarization (AID 588442). It is filed as functional, cell-based. As to conditions: Homo sapiens.

SMILES strings stand for the structures. Calls of active or inactive are those of the source.

Sequence of Multidrug resistance protein CDR2 (P78595 whole entry): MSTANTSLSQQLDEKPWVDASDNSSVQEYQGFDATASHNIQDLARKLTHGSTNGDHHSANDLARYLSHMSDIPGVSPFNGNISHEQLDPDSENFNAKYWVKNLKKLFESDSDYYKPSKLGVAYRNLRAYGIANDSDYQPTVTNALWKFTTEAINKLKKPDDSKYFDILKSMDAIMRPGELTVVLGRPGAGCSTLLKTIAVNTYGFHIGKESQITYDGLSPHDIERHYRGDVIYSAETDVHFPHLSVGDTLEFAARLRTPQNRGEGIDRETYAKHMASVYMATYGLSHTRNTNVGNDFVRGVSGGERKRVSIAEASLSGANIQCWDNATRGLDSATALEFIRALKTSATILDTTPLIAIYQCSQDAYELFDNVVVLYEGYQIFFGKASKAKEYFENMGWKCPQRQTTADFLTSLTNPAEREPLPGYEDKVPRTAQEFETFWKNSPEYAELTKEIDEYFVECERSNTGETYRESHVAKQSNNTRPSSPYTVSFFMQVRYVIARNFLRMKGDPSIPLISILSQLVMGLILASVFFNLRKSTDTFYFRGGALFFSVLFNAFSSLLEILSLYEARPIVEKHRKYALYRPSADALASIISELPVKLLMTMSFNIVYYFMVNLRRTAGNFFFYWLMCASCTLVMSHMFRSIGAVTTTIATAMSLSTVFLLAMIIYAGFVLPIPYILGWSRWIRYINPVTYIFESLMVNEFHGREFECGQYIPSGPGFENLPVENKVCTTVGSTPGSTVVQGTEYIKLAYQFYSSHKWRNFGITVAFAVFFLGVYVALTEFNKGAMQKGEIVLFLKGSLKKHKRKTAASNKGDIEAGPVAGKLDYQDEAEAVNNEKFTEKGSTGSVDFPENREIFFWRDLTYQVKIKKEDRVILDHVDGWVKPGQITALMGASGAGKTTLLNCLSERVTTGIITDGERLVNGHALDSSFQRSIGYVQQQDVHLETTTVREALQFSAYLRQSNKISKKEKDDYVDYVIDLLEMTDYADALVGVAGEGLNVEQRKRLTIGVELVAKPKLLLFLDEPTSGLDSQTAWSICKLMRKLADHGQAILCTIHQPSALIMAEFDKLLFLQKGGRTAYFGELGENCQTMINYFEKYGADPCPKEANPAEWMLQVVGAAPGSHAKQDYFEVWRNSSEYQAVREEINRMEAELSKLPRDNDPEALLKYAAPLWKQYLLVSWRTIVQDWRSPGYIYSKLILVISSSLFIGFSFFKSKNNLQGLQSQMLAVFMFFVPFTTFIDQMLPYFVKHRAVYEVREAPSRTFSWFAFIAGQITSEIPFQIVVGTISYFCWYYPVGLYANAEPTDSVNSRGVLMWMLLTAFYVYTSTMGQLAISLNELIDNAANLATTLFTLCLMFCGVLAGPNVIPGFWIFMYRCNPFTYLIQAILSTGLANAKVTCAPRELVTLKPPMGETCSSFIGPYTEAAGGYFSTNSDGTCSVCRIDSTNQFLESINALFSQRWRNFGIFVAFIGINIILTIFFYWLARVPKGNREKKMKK
Sequence of Beta-lactamase (Salmonella choleraesuis (strain SC-B67), UniProt Q5J463) (Q5J463 whole entry, the tested form may be a part): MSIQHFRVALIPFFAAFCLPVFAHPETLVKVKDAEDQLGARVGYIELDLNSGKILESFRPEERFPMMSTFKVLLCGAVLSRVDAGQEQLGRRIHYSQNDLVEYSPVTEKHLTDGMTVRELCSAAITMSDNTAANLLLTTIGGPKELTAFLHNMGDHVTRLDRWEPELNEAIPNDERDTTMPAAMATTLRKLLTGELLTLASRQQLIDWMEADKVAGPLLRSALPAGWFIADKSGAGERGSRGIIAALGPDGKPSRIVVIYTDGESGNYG

Take `CCC(=O)N1CCN(c2ccc(Cl)cc2NC(=O)c2ccc3c(c2)OCCO3)CC1`: the EC50 in [1] was 117 µM (active); in [2], 3.35 µM (active); in experiment [3], 32.1 µM (active).
Consider `C/C(CCC(C)C)=N\Nc1ccc(S(N)(=O)=O)cc1[N+](=O)[O-]`, for which, in [4], the IC50 is 155 µM (inactive).
Turning to `C=CCNC(=S)/N=c1/ccccn1Cc1ccccc1`, the IC50 in [5] was 40.8 µM (inactive).
On to `Cc1cc(C(F)(F)F)nc(SCCN2CCOCC2)c1C#N`, for which the IC50 in [6] was 19.7 µM (active); in experiment [7] it was > 100 µM (inactive); in experiment [8], 25.7 µM (active).
With `CCCCn1nc2cc(C(=O)N[C@H](C)C3CCCCC3)ccc2c1OCC`, the IC50 in experiment [9] was 7.76 µM (active); in [10], 4.47 µM (active).
On to `C=CC(=O)N1C/C(=C/c2ccccc2)C(=O)/C(=C\c2ccccc2)C1`, for which the IC50 in experiment [11] is 3.66 µM (active).
As to `CCCCNc1ccc2c3c(cccc13)C(=O)N(CCCC)C2=O`, the IC50 was 37.2 µM (inactive) in experiment [12], 3.89 µM (active) in [13], > 49.7 µM (inactive) in experiment [14] and > 89.1 µM (inactive) in experiment [17]. The values for the EC50 in experiment [15], in experiment [16] and in experiment [18] were > 54.7 µM (inactive), > 54.7 µM (inactive) and 12.1 µM (inactive), respectively.
